# Experimental data published in paper PMC9610897, “Cationic Perylene Antivirals with Aqueous Solubility for Studies In Vivo” (Pharmaceuticals, 2022).
# Like-named read-outs stand apart in the source and are kept apart here.
# Columns and labels:
# [1] = Cell viability assay in MDCK cells (MTT); assay type: cell-based, canine; details: dog, read-out: Cytotoxicity, CC50 ± SD, MDCK
# Protocol: (§1) The green monkey kidney (Vero) cell line originated from WHO Biologicals, Switzerland (10–87), and the Madin-Darby canine kidney (MDCK) cell line was obtained from the American Type Culture Collection (ATCC CCL-34).
# Compound solutions were prepared in DMSO (20 mg/mL), and then 2-fold dilutions in cultural medium were prepared starting from 1000 μg/mL. One-day MDCK cell monolayers (over 95% confluency) in 96-well plates ([…]) were washed twice with serum-free alpha-MEM (Thermo-Fisher Scientific, USA) and treated with 100 μL of compound dilutions in 2 replicates. The plates were then incubated for 24 h at 37 °C in a CO2 incubator. Cell viability was assessed using the tetrazolium test (MTT, ApplyChem). Optical density was measured on a Wallac 1420 Victor2 microplate reader (Perkin Elmer, Ramsey, MN, USA) at 535 nm, then CC50 values were calculated.
# IAV = IAV virus yield reduction assay; assay type: cell-based, influenza A virus (H1N1, strain A/PR/8/34); details: Influenza A virus; virus yield reduction in MDCK cells, MOI 1, 24 h, M ± SD; read-out: Antiviral Activity, EC50 ± SD, IAV
# Description: as §1
# (§2) Viruses and strains used in the present work were severe acute respiratory syndrome-related coronavirus 2 (SARS-CoV-2, strain PIK35, GISAID EPI_ISL_428852), Chikungunya virus (CHIKV, strain Nic, GenBank IDs MN271691-2) and influenza A virus (H1N1, strain A/PR/8/34, ATCC VR-95).
# Compound solutions were prepared in DMSO (20 mg/mL). The compounds were weighed in 2 mg amounts and dissolved in 100 μL of DMSO. Then, a series of 3-fold dilutions was prepared, starting from 300 µg/mL, in a cultural medium. The MDCK cell monolayer was treated with compound dilutions and incubated for 1 h in a CO2 incubator at 37 °C. Untreated cells were used as negative control. Afterward, the virus was added (MOI 1), and cells were incubated for 24 h at 37 °C in a CO2 incubator. After incubation, the culture medium was collected, and viral yields were determined by titration. In brief, a series of 10-fold dilutions (10^−7–10^−1) of viral supernatants were prepared in a cultural medium and applied to daily MDCK cell monolayers. Infected cells were incubated for 72 h at 37 °C in a CO2 incubator. The presence of the virus in the culture supernatants was determined using the hemagglutination assay with a 1% suspension of chicken erythrocytes. Viral titer was calculated according to the Reed-and-Muench method and was expressed as 50% tissue infectious doses (TID50) per 100 μL of volume. Inhibition (%) was calculated by comparison with non-treated cells, and EC50 was calculated from inhibitory curves.
# [2] = Cell viability assay in Vero cells (resazurin); assay type: cell-based; details: green monkey, 5 d, read-out: Cytotoxicity, CC50 ± SD, Vero
# Protocol: as §1
# Two-fold dilutions of the compounds (starting from 100 μM) were prepared in DMEM (Chumakov FSC R&D IBP RAS, Russia) and added to confluent cell monolayers. After 5 days of incubation (37 °C, 5% CO2), the cultural supernatant was substituted with a resazurin solution (25 μg/mL), followed by 4 h incubation (37 °C, 5% CO2). Then, 20 µL of 10% SDS were added to stop the reaction. Fluorescence intensity was measured with Promega GloMax-Multi Detection System (Ex525/Em580–640). Cells treated with dilutions of the compounds and DMSO, but not resazurin, were used to subtract the background fluorescence. All experimental procedures were performed in two replicates. Fluorescence curves were analyzed with Microsoft Excel 2013. 50% Cytotoxic concentrations (CC50) were calculated.
# SARS-CoV-2 = SARS-CoV-2 cytopathic effect (CPE) inhibition test; assay type: cell-based, strain PIK35; details: Severe acute respiratory syndrome coronavirus 2, 120 h; CPE inhibition in Vero cells, 5 days, M ± SD; read-out: Antiviral Activity, EC50 ± SD, SARS-CoV-2
# Description: as §1, §2
# The procedure was described previously. In brief, two-fold dilutions of the compounds were prepared in Dulbecco MEM (Chumakov FSC R&D IBP RAS, Russia) and mixed 1:1 with a virus suspension containing 50–200 TCID50 and incubated for 1 h at 37 °C in a CO2 incubator. The final concentration series started from 100 μM. Then, compound-virus mixtures were added to confluent Vero cell monolayers in 2 replicates. After incubation at 37 °C in a CO2-incubator for 5 days, CPE signs (cell death) were assessed via microscope, and 50% effective concentration (EC50) (compound concentration required to decrease CPE by 50%) was calculated using the Karber method.
# [3] = system: influenza A/California/7/09/MA virus; assay type: in vivo, BALB/c mice; details: for Average Life Expectancy (M ± SEM): BALB/c mice
# [4] = Solubility in water (photometry); assay type: physicochemical
# Protocol: The samples were dissolved in DMSO, diluted in series, and photometrically analyzed. The average molar absorption coefficient was calculated from the obtained optical densities of calibration solutions at the absorption maxima. Solubility values were determined as previously described by adding weighed amounts of compounds to distilled water followed by sonication (30 min), centrifugation (12,000 rpm, 10 min), and photometry.
# in vitro = in vitro ADME; details: bovine, 80% FBS in 0.05 M PBS pH 7.4, 37 °C, read-out: In vitro FBS half-life (t1/2)
# Protocol: In vitro stability of 10 was studied in Gibco FBS (Thermo-Fisher Scientific, USA) by following the reported procedure with minor modifications. A 10 mM solution of the compound in DMSO (20 μL) was added to 80% FBS in 0.05 M PBS (pH 7.4) at 37 °C to yield the final concentration of 200 μM. The assays were carried out in triplicate in a water bath at 37 °C. Samples (100 μL) were taken at 0, 15, 30, 45, 60, 90, 120, 180, 240, and 300 min and added to 400 μL acetonitrile in order to deproteinize the plasma. The samples were then shaken for 1 min and centrifuged at 37 °C at 15,000 rpm for 5 min. The supernatants were analyzed by HPLC (detection at 530 nm). AUC values were determined and averaged from three independent experiments. In vitro serum half-life (t1/2) was calculated using the equation t1/2 = 0.693/b, where b is the slope found by linear fitting of the negative natural logarithm of the fraction remaining (AUC0-300/AUC0) vs. incubation time.
# CHIKV = CHIKV cytopathic effect (CPE) inhibition test; assay type: cell-based, Chikungunya virus (CHIKV, strain Nic); details: Chikungunya virus, 120 h; CPE inhibition in Vero cells, 5 days, M ± SD; read-out: Antiviral Activity, EC50 ± SD, CHIKV
# [5] = Stability in stomach acid-mimicking 0.16 M aqueous HCl (TLC); assay type: physicochemical
# Protocol: Since in vivo evaluation of the leader compound in mouse model involves intragastric administration, stability in stomach acid-mimicking 0.16 M aqueous HCl was assessed. The compound was stable, with slight signs of decomposition as determined by thin-layer chromatography (TLC) for at least 4 h, which exceeds the average residence time of drugs in the stomach. Then, stability in fetal bovine serum (FBS) was evaluated.
smiles,measurement,setting,value
"C[n+]1c(C=Cc2ccc3c4cccc5cccc(c6cccc2c63)c54)sc2ccccc21.[Cl-] [Compound 10, 3-Methyl-2-(2-(perylen-3-yl)vinyl)benzo[d]thiazol-3-ium chloride]",CC50 at 24 h,[1],69 ± 27 µM
same,EC50,IAV,22.7 ± 10 µM
same,CC50 at 5 days,[2],> 100 µM
same,EC50,SARS-CoV-2,1.45 ± 0.95 µM
same,Average Life Expectancy (M ± SEM),[3]; 0.5 mg/kg intragastric,8.6 ± 1.0 days
same,Protective Index (PI),[3]; 0.5 mg/kg intragastric,11%
same,Average Life Expectancy (M ± SEM),[3]; 4.5 mg/kg intragastric,8.6 ± 1.2 days
same,Protective Index (PI),[3]; 4.5 mg/kg intragastric,22%
same,Weight loss (maximum),"[3]; mouse, in vivo",up to 21.3%
same,Solubility in water (in words),[4],substantial solubility
same,solubility at 30 min,"[4]; thermodynamic from solid, distilled water, sonication, centrifugation, photometry",11 mM
same,half-life at 200 μM,in vitro,2.78 h
same,EC50,CHIKV,0.99 ± 0.15 µM
same,"Stability in 0.16 M aqueous HCl, time stable with slight signs of decomposition",[5],at least 4 h
